Assay results published in patent publication EP4818177A1, “TRICYCLIC DERIVATIVE INHIBITOR, AND PREPARATION METHOD AND USE THEREFOR” (Shanghai Hansoh Biomedical Co., Ltd., priority 2023, dated 2025).

What was measured:
[1] = tested on: MTAP Knockout HCT116 cells; assay: Cell proliferation inhibition (CellTiter-Glo), MTAP knockout cells; format: cell-based; details: for Selectivity: HCT116 versus MTAP Knockout HCT116; for IC50: Homo sapiens, HCT-116, MTAP Knockout HCT116 cells, 72-240 hours incubation, CellTiter-Glo
Description: (§1) Test Example 2: Determination of the inhibitory effect of the compounds of the present invention on the proliferation activity of HCT116 and MTAP Knockout HCT116 cells.
(§2) 1. Experimental objective: to determine the inhibitory effect of the compound on the proliferation activity of HCT116 wild-type and HCT116 MTAP knockout cells. 2. Experimental instruments: Centrifuge (Eppendorf 5810R); microplate reader (BioTek Synergy H1 or PerkinElmer Envision); pipette (Eppendorf or Rainin). 3. Experimental reagents: HCT116 and MTAP Knockout HCT116 cells were purchased from Nanjing Cobioer; Cell Titer-Glo was purchased from Promega (Cat. No. G7573); McCoy' 5A was purchased from Gibco (Cat. No. 12330031); FBS was purchased from Gibco (Cat. No. 10091148); PBS was purchased from Gibco (Cat. No. 10010023); trypsin was purchased from Gibco (Cat. No. 25200056); cell culture plates were purchased from Corning (Cat. No. 3610). 4. Experimental methods: HCT116 and MTAP Knockout HCT116 cells were cultured in McCoy'5A medium containing 10% FBS until an appropriate cell density was reached. The cells were then collected and adjusted to a suitable concentration using complete medium. The cell suspension was seeded into a 96-well plate at 90 µL per well and allowed to adhere overnight in a 37°C, 5% CO2 incubator. Compound solutions of various concentrations were prepared using DMSO and culture medium, with a vehicle control set. The compound solutions were added to the 96-well plate at 10 µL per well, and the plate was incubated in a 37°C, 5% CO2 incubator for an additional 72-240 hours. After incubation, CellTiter-Glo solution was added, and the mixture was mixed uniformly by shaking, followed by incubation in the dark for 10 to 30 minutes. Luminescence was measured using a Synergy H1 or Envision microplate reader. 5. Experimental data processing method: The inhibition rate was calculated using the luminescence signal values, and the concentrations along with the inhibition rates were subjected to non-linear regression curve fitting using Graphpad Prism software to obtain the IC50 values.

[2] = Pharmacokinetics in rats (plasma) after oral administration; details: male, SD, rat, 5 mg/kg
Description: Test Example 4: Determination of the pharmacokinetics of the compounds of the present invention in rats (plasma) after oral administration.
Study objective: SD rats were used as test animals to study the pharmacokinetic behaviour of the following example compounds in rats (plasma) after oral administration at a dose of 5 mg/kg. […] Test scheme 2.1 Test drugs: Vehicle formula: 0.5% CMC-Na (1% Tween 80); the examples of the present invention, prepared in house. 2.2 Test animals: 3 SD rats per group, male, purchased from Shanghai Bikai Keyi Biotechnology Co., Ltd., with animal license number (SCXK (Shanghai) 2018-0006, No.20180006037467). 2.3 Administration: 3 SD rats per group, male, were fasted overnight and then respectively administered PO at a dose of 5 mg/kg and a volume of 10 mL/kg. 2.4 Sample collection: 0.2 mL of blood was collected from the jugular vein of rats before administration and at 0, 0.25, 0.5, 1, 2, 4, 6, 8 and 24 h after administration, and placed in EDTA-K2test tubes, and the test tubes were centrifuged at 6,000 rpm at 4°C for 6 min to separate the plasma, which was stored at -80°C. The animals were fed 4 h after administration. 2.5 Sample treatment • 1) 160 uL of acetonitrile was added to 40 uL of plasma sample for precipitation, and after mixing, the mixture was centrifuged at 3,500 × g for 5-20 minutes. • 2) 100 uL of the treated supernatant solution was taken for LC/MS/MS analysis to determine the concentration of the test compounds. 2.6 Liquid phase analysis • Liquid phase conditions: Shimadzu LC-20AD pump; • Mass spectrometry conditions: AB Sciex API 4000 mass spectrometer; • Chromatographic column: phenomenex Gemiu 5 um C18 50 × 4.6 mm; • Mobile phase: solution A: 0.1% formic acid in water, solution B: methanol; • flow rate: 1.0 mL/min; Elution time: 0-4.0 min, with eluents as follows:
Experimental results and analysis: The main pharmacokinetic parameters were calculated using WinNonlin 8.2.

[3] = target: T1, PRMT5/MEP50-MTA protein complex (Homo sapiens, UniProt O14744); assay: Thermal shift assay: change in melting temperature of the PRMT5/MEP50-MTA protein complex; format: binding; details: compound 8 µM, PRMT5/MEP50 2 µM, MTA 2 µM; Tm minus DMSO vehicle control
T1 construct: purchased Viva Biotech
T1 sequence (O14744 whole entry): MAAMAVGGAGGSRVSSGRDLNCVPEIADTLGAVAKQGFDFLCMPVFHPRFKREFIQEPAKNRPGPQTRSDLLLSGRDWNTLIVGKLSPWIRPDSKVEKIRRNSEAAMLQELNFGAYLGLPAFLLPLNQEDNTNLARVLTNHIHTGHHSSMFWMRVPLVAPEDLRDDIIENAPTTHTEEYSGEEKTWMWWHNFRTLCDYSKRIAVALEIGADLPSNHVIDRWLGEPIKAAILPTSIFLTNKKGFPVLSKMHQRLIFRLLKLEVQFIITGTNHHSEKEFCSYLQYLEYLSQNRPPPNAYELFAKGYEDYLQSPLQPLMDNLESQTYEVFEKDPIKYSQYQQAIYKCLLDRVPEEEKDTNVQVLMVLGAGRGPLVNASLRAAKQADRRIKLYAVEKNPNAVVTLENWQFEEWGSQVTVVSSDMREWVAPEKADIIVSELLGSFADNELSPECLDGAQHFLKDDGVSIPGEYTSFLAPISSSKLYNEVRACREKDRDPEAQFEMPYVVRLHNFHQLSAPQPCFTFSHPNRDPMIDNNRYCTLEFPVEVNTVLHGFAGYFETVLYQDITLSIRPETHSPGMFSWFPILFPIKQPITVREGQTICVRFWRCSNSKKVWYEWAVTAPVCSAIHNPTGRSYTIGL
T1 sequence (Q9BQA1 whole entry partner): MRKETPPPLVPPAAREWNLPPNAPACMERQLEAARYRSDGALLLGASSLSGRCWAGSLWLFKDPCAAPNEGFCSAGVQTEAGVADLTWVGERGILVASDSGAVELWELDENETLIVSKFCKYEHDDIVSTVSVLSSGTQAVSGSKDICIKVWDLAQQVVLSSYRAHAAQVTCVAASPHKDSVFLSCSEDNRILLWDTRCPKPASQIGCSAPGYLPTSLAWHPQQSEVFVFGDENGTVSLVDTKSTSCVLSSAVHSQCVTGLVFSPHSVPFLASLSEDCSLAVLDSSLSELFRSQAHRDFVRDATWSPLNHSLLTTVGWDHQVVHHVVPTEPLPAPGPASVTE
Description: Test Example 1: Determination of the ability of the compounds of the present invention to improve the thermal stability (melting temperature) of the PRMT5/MEP50-MTA protein complex.
1. Experimental objective: The objective of this test example is to determine the ability of the compound to improve the thermal stability of the PRMT5/MEP50-MTA protein complex, resulting in an increase in the protein melting temperature. 2. Experimental instruments: Quantitative PCR instrument (Quantstudio6 Flex) was purchased from Life Technologies; pipettes were purchased from Eppendorf or Rainin. 3. Experimental reagents and consumables: PRMT5/MEP50 protein was prepared by Viva Biotech; HEPES was purchased from Thermo Fisher Scientific (Cat. No. 15630080); DTT was purchased from Sigma (Cat. No. 43816-10ml); sodium chloride was purchased from Invitrogen (Cat. No. AM9760G); Protein Thermal Shift™ Dye Kit was purchased from Thermo Fisher Scientific (Cat. No. 4461146); methylthioadenosine (MTA) was purchased from Sigma (Cat. No. D5011). 4. Experimental methods: In this experiment, the thermal shift method was used to measure the change in the melting temperature (Tm) of the PRMT5/MEP50-MTA protein complex before and after compound binding, thereby characterising the ability of the compound to improve the thermal stability of the PRMT5/MEP50-MTA protein complex. A solution containing 50 mM HEPES, 10 mM DTT, 2 µM MTA, SYPRO Orange and 250 mM NaCl was prepared as the experimental buffer. Human PRMT5/MEP50 protein was added to a final concentration of 2 µM, and the mixture was incubated at room temperature for 30 minutes. The above reaction mixture was aliquoted into 8-strip PCR tubes at 19.5 µL per tube. Then 0.5 µL of test compound or DMSO was added to each tube, providing a total reaction volume of 20 µL and a final compound concentration of 8 µM. 2.5% DMSO was set as the vehicle control. After incubation at room temperature for 10 minutes, the PCR tubes were placed in a PCR instrument, and the melt curve function was selected to measure the melting temperature of the PRMT5/MEP50-MTA protein complex in different treatment groups (heated from 25°C to 95°C, 0.03°C/s). 5. Experimental data processing method: The experimental data files from the PCR instrument were imported into the thermal shift software to obtain the melting temperature (Tm) for each treatment group.

[4] = tested on: HCT116 wild-type cells; assay: Cell proliferation inhibition (CellTiter-Glo), wild-type cells; format: cell-based; details: Homo sapiens, HCT-116, HCT116 wild-type cells, 72-240 hours incubation
Description: as §1, §2

Structure (SMILES) | Selectivity [1] | IC50 [1] [nM] | AUC(0-inf) [2] [ng·h/mL] | Cmax [2] [ng/mL] | MRT inf [2] [h] | Tmax [2] [h] | half-life [2] [h] | ΔTm at 8 µM [3] [°C] | IC50 [4] [nM]
CNN(C(=O)c1cc2c(cn1)nc(N)c1cnn(C)c12)[C@@H]1COc2cc(S(F)(F)(F)(F)F)ccc21 (single isomer, unassigned) [Example 375-P1] | 17 | 7.9 | 2130 | 287 | 5 | 1.3 | 3.3 | 13 | 133
[2H]C([2H])([2H])NN(C(=O)c1cc2c3c(c(N)nc2cn1)COC3)[C@H]1COCc2c1ccn1c(C(F)(F)F)cnc21 (stereo in doubt) [Example 371-P1, (R)-4-amino-N'-(methyl-d3)-N-(3-(trifluoromethyl)-7,10-dihydro-8H-imidazo[1,2-a]pyrano[3,4-c]pyridin-7-yl)-1,3-dihydrofuro[3,4-c][1,7]naphthyridine-8-carbohydrazide] | 121 | 8.5 | 4800 | 1600 | 2.5 | 0.8 | 1.6 | 11.6 | 1040
CCNN(C(=O)c1cc2c(cc1C)nc(N)c1cncn12)C1COCc2nc(C(F)(F)F)ccc21 (stereo not shown) [Example 277, 4-Amino-N'-ethyl-7-methyl-N-(2-(trifluoromethyl)-5,8-dihydro-6H-pyrano[3,4-b]pyridin-5-yl)imidazo[1,5-a]quinoxaline-8-carbohydrazide] | 17 | 12 | – | – | – | – | – | 12.9 | 207
CNN(C(=O)c1cc2c(cc1F)nc(N)c1cncn12)C1COCc2c1ccn1c(C(F)(F)F)cnc21 (stereo not shown) [Example 282, 4-Amino-7-fluoro-N'-methyl-N-(3-(trifluoromethyl)-7,10-dihydro-8H-imidazo[1,2-a]pyrano[3,4-c]pyridin-7-yl)imidazo[1,5-a]quinoxaline-8-carbohydrazide] | 145 | 17 | – | – | – | – | – | 12.3 | 2450
CNN(C(=O)c1cc2c3c(c(N)nc2cn1)COC3)[C@@H]1COCc2c1ccn1c(C(F)(F)F)cnc21 [Example 285, 4-Amino-N'-methyl-N-(3-(trifluoromethyl)-7,10-dihydro-8H-imidazo[1,2-a]pyrano[3,4-c]pyridin-7-yl)-1,3-dihydrofuro[3,4-c][1,7]diazanaphthalene-8-carbohydrazide] | 120 | 10 | 4980 | 999 | 4.8 | 0.8 | 4.2 | 11.6 | 1150
CNN(C(=O)c1cc2c3c(c(N)nc2cc1C)COC3)C1COCc2nc(C(F)(F)F)ccc21 (stereo not shown) [Example 307, 4-Amino-7-methyl-N'-methyl-N-(2-trifluoromethyl-5,8-dihydro-6H-pyrano[3,4-b]pyridin-5-yl)-1,3-dihydrofuro[3,4-c]quinoline-8-carbohydrazide] | 73 | 15 | – | – | – | – | – | 12.7 | 1060
[2H]C([2H])([2H])NN(C(=O)c1ccc2nc(N)c3cnn(C)c3c2c1)[C@@H]1COCc2nc(C(F)(F)F)ccc21 [Example 317] | 130 | 3.9 | 739 | 240 | 2.8 | 1 | 1.9 | 11.6 | 508
[2H]C([2H])([2H])NN(C(=O)c1ccc2nc(N)c3cnn(C)c3c2c1)C1([2H])COCc2nc(C(F)(F)F)ccc21 (stereo not shown) [Example 324, 4-Amino-N-[5-deuterio-2-(trifluoromethyl)-6,8-dihydropyrano[3,4-b]pyridin-5-yl]-1-methyl-N'-(trideuteriomethyl)pyrazolo[4,3-c]quinoline-8-hydrazide] | 155 | 15 | – | – | – | – | – | 11.1 | 2380
[2H]C([2H])([2H])NN(C(=O)c1cc2c3c(c(N)nc2cn1)COC3)[C@@]1([2H])COCc2c1ccn1c(C(F)(F)F)cnc21 [Example 354-P1, (R)-4-amino-N'-(methyl-d3)-N-(3-(trifluoromethyl)-7,10-dihydro-8H-imidazo[1,2-a]pyrano[3,4-c]pyridin-7-yl-7-d)-1,3-dihydrofuro[3,4-c][1,7]naphthyridine-8-carbohydrazide] | 107 | 23 | – | – | – | – | – | 11.6 | 2470
[2H]C([2H])([2H])NN(C(=O)c1cc2c3c(c(N)nc2cc1C)COC3)C1COCc2c1ccn1c(C(F)(F)F)cnc21 (stereo not shown) [Example 357, 4-Amino-7-methyl-N'-methyl-d3-N-(3-trifluoromethyl-7,10-dihydro-8H-imidazo[1,2-a]pyrano[3,4-c]pyridin-7-yl)-1,3-dihydrofuro[3,4-c]quinoline-8-carbohydrazide] | 100 | 7.6 | 1080 | 360 | 2.2 | 0.7 | 1.2 | 12.2 | 760
[2H]C([2H])([2H])NN(C(=O)c1ccc2nc(N)c3cnn(C)c3c2c1)C1COCc2c1ccn1c(C(F)(F)F)cnc21 (stereo not shown) [Example 436] | 185 | 8.9 | 2030 | 143 | 14.9 | 3.3 | 10.8 | 11.5 | 1640
CNN(C(=O)c1ccc2nc(N)c3cnn(C)c3c2c1)C1COCc2nc(S(F)(F)(F)(F)F)ccc21 (stereo not shown) [Example 448] | 44 | 7.8 | – | – | – | – | – | 12.3 | 344
CNN(C(=O)c1cc2c(cc1C)nc(N)c1cnn(C)c12)C1COc2cc(S(F)(F)(F)(F)F)ccc21 (stereo not shown) [Example 451, 4-Amino-N',1,7-trimethyl-N-(6-(pentafluorosulphanyl)-2,3-dihydrobenzofuran-3-yl)-1H-pyrazolo[4,3-c]quinoline-8carbohydrazide] | 21 | 4.2 | – | – | – | – | – | 13.7 | 89
